Measured values: ChEMBL document CHEMBL1201862, “PubChem BioAssay data set” (2004)
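Dose response: 5 concentrations. Exposure: 48 h. Format: 96-well plates. Endpoint: linear interpolation; highest concentration if not reached. The concentration for 50% growth inhibition is given as GI50.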 Activity calls are given as the source filed them. Rule as the data show it: active = GI50 up to about 1.1 µM and inactive = higher.

How the values were obtained:
Assay in all cases: growth of human tumour cells (NCI), 48 h
A498 = system: A498
A549 = system: A549
HOP-62 = system: HOP-62
IGROV-1 = system: IGROV-1
KM12 = system: KM12
NCI-H23 = system: NCI-H23
NCI-H460 = system: NCI-H460
OVCAR-3 = system: OVCAR-3
OVCAR-4 = system: OVCAR-4
OVCAR-8 = system: OVCAR-8
SF-295 = system: SF-295
SK-MEL-2 = system: SK-MEL-2
SK-MEL-5 = system: SK-MEL-5
TK-10 = system: TK-10
U-251 = system: U-251
COLO 205 = system: COLO 205
SN12C = system: SN12C
SNB-19 = system: SNB-19

Measured: GI50

Cc1[nH]c2ccccc2c1-c1n[nH]c(=O)c2ccccc12
inactive: A498 19.8 µM | A549 24.6 µM | HOP-62 6.56 µM | IGROV-1 31.5 µM | KM12 11.3 µM | NCI-H23 26 µM | NCI-H460 22.9 µM | OVCAR-3 23.3 µM | OVCAR-4 29.3 µM | OVCAR-8 32.5 µM | SF-295 23.3 µM | SK-MEL-2 31.7 µM | SK-MEL-5 15.5 µM | TK-10 37.1 µM | U-251 31.5 µM

CC(C)OC(=O)c1cccnc1/C=N/O
inactive: A498 > 100 µM | A549 > 100 µM | COLO 205 > 100 µM | HOP-62 > 100 µM | IGROV-1 > 100 µM | KM12 > 100 µM | NCI-H23 > 100 µM | NCI-H460 84.1 µM | OVCAR-3 > 100 µM | OVCAR-8 > 100 µM | SF-295 88.5 µM | SK-MEL-2 > 100 µM | SK-MEL-5 > 100 µM | SN12C > 100 µM | SNB-19 > 100 µM | TK-10 > 100 µM | U-251 > 100 µM

CC(C)(C)NCC(COc1ccc([N+](=O)[O-])cc1)OP(c1ccccc1)c1ccccc1 (configuration not stated)
inactive: A498 44.7 µM | A549 40.6 µM | COLO 205 31.4 µM | HOP-62 > 100 µM | IGROV-1 53.3 µM | KM12 29.9 µM | NCI-H23 44.9 µM | NCI-H460 35.8 µM | OVCAR-3 34 µM | OVCAR-8 34.8 µM | SF-295 23.7 µM | SK-MEL-2 35.4 µM | SK-MEL-5 18.8 µM | SN12C 36.6 µM | SNB-19 38.7 µM | TK-10 43.9 µM | U-251 41.5 µM

NC(N)=NN/C(=C1/N=c2ccc([N+](=O)[O-])cc2=NC1=O)C(O)c1ccco1 (configuration not stated)
inactive: A498 > 100 µM | A549 > 100 µM | COLO 205 > 100 µM | HOP-62 > 100 µM | IGROV-1 > 100 µM | KM12 > 100 µM | NCI-H23 > 100 µM | NCI-H460 > 100 µM | OVCAR-4 > 100 µM | OVCAR-8 > 100 µM | SF-295 > 100 µM | SK-MEL-2 > 100 µM | SK-MEL-5 > 100 µM | SN12C > 100 µM | SNB-19 > 100 µM | TK-10 > 100 µM | U-251 > 100 µM

O=S(=O)(N/N=C/c1cccc(/C=N/NS(=O)(=O)c2ccccc2)c1)c1ccccc1
inactive: A498 > 100 µM | A549 79.6 µM | COLO 205 38.3 µM | HOP-62 > 100 µM | IGROV-1 69.2 µM | KM12 58.6 µM | NCI-H23 87.1 µM | NCI-H460 68.7 µM | OVCAR-3 54.8 µM | OVCAR-4 77.8 µM | OVCAR-8 55.5 µM | SF-295 28 µM | SK-MEL-2 > 100 µM | SK-MEL-5 39.2 µM | SN12C > 100 µM | TK-10 47.8 µM | U-251 69.5 µM

NC1CCC2(O)c3ccccc3C2C1 (configuration not stated)
inactive: A549 > 100 µM | COLO 205 > 100 µM | HOP-62 > 100 µM | KM12 > 100 µM | NCI-H23 > 100 µM | NCI-H460 > 100 µM | OVCAR-4 > 100 µM | OVCAR-8 > 100 µM | SF-295 > 100 µM | SK-MEL-2 > 100 µM | SK-MEL-5 > 100 µM | SN12C > 100 µM | SNB-19 > 100 µM | TK-10 > 100 µM | U-251 > 100 µM

NC(=O)C(=O)C1C(=O)N(c2ccccc2)N=C1N (configuration not stated)
inactive: A549 > 100 µM | COLO 205 > 100 µM | HOP-62 > 100 µM | IGROV-1 > 100 µM | KM12 > 100 µM | NCI-H23 > 100 µM | NCI-H460 > 100 µM | OVCAR-3 > 100 µM | OVCAR-4 > 100 µM | OVCAR-8 > 100 µM | SF-295 > 100 µM | SK-MEL-2 > 100 µM | SN12C > 100 µM | SNB-19 > 100 µM | TK-10 > 100 µM

CNC(C)(C)Cc1ccc(Cl)cc1
inactive: A498 > 100 µM | A549 > 100 µM | COLO 205 > 100 µM | HOP-62 > 100 µM | IGROV-1 > 100 µM | KM12 > 100 µM | NCI-H23 > 100 µM | NCI-H460 > 100 µM | OVCAR-3 > 100 µM | OVCAR-4 > 100 µM | OVCAR-8 > 100 µM | SF-295 > 100 µM | SK-MEL-2 > 100 µM | SK-MEL-5 > 100 µM | SN12C > 100 µM | TK-10 > 100 µM | U-251 > 100 µM

Cc1ccc(/N=N/c2c(C)nn(-c3ccccc3)c2-c2ccccc2)c(Br)c1
inactive: A498 > 100 µM | A549 > 100 µM | HOP-62 > 100 µM | IGROV-1 > 100 µM | KM12 > 100 µM | NCI-H460 31.8 µM | OVCAR-3 > 100 µM | OVCAR-4 > 100 µM | OVCAR-8 > 100 µM | SF-295 86.5 µM | SK-MEL-2 > 100 µM | SN12C > 100 µM | SNB-19 > 100 µM | TK-10 > 100 µM

Clc1ccc2c(c1)-c1c3c(nn1-c1ccccc1)-c1ccccc1SC3O2 (configuration not stated)
inactive: A498 > 100 µM | A549 > 100 µM | COLO 205 > 100 µM | HOP-62 > 100 µM | IGROV-1 > 100 µM | KM12 > 100 µM | NCI-H23 > 100 µM | NCI-H460 > 100 µM | OVCAR-3 > 100 µM | OVCAR-8 > 100 µM | SF-295 > 100 µM | SK-MEL-2 > 100 µM | SK-MEL-5 > 100 µM | TK-10 > 100 µM | U-251 > 100 µM

COC(=O)c1ccccc1N1C(=O)Cc2ccccc2C1=O
inactive: A549 > 100 µM | COLO 205 > 100 µM | IGROV-1 > 100 µM | KM12 > 100 µM | NCI-H23 > 100 µM | OVCAR-3 35.6 µM | OVCAR-8 75.9 µM | SF-295 45.4 µM | SK-MEL-2 > 100 µM | SK-MEL-5 > 100 µM | SN12C > 100 µM | SNB-19 > 100 µM | TK-10 > 100 µM | U-251 > 100 µM

CC(C)C(C(=O)O)N(CC1(O)OCC(O)C(O)C1O)N=O (configuration not stated)
inactive: A498 > 100 µM | A549 > 100 µM | COLO 205 > 100 µM | HOP-62 > 100 µM | IGROV-1 > 100 µM | KM12 > 100 µM | NCI-H23 > 100 µM | NCI-H460 > 100 µM | OVCAR-3 > 100 µM | OVCAR-8 > 100 µM | SK-MEL-2 > 100 µM | SK-MEL-5 > 100 µM | TK-10 > 100 µM | U-251 > 100 µM

CC1C=CC(C)C2(O)C(=O)NC(O)C12 (configuration not stated)
inactive: A498 > 100 µM | A549 > 100 µM | COLO 205 > 100 µM | HOP-62 > 100 µM | IGROV-1 > 100 µM | KM12 > 100 µM | NCI-H460 > 100 µM | OVCAR-4 > 100 µM | OVCAR-8 > 100 µM | SK-MEL-2 > 100 µM | SK-MEL-5 > 100 µM | SN12C > 100 µM | SNB-19 > 100 µM | TK-10 > 100 µM | U-251 > 100 µM
